Assay results reported in patent US7829524B2, “Antimicrobial peptides” (Novozymes Adenium Biotech A/S, priority 2003, dated 2010).
Like-named read-outs stand apart in the source and are kept apart here. Where no end group is shown, it is not given here.

How the values were obtained:
Escherichia coli Top10 = test: Radial Diffusion Assay using minimal conditions (MEC); assay type: cell-based; settings: Table 8
Description: (§1) A modified version of a previously published protocol has been applied in the detection of antimicrobial activity (Lehrer et al., (1991) Ultra sensitive assays for endogenous antimicrobial polypeptides J Immunol Methods 137: 167-173). Target bacteria (10^6 colony forming units (CFU)) were added to 10 ml of underlay agarose (1% low electro-endosmosis agarose, 0.03% Trypticase soy broth, 10 mM sodium phosphate, pH 7.4, 37 degrees Celsius). Suspension was solidified on an INTEGRID Petri Dish (Becton Dickinson Labware). A 3 mm Gel Puncher was used to make holes in the underlay agarose (Amersham Pharmacia Biotech, Sweden). Samples were added to the holes and incubated at 37 degrees Celsius, 3 hours. An overlay was poured on top and the plate was incubated overnight (LB media, 7.5% Agar). Antimicrobial activity was seen as bacterial clearing zones around the wells. Living cells was counterstained by adding 10 ml, 0.2 mM MTT (3-(4,5-Dimethylthiazol-2-yl)-2,5-diphenyltetrazolium bromide Thiazolyl blue).
(§2) The antimicrobial activity of the polypeptides of the invention was also analyzed in a Radial Diffusion Assay (see Example 1) using minimal conditions. Two bacterial strains were tested in this setup; Staphylococcus camosus and Escherichia coli Top10. The amino acid sequence of the polypeptides and the Minimal Effective Concentration (MEC, microgram/ml) obtained is presented in table 8 below.

Staphylococcus camosus = test: as above; assay type: cell-based; settings: Table 8
Description: as §1, §2

E. coli TOP10 = assay type: cell-based
Description: A range of synthetic antimicrobial polypeptides were expressed in E. coli TOP10 (Invitrogen) using arabinose as inducer, as disclosed in Example 1 of International patent application WO 00/73433 (with minor modifications). […] Briefly, fresh overnight cultures grown in RM medium containing 0.2% glucose and ampicillin (100 μg/ml) were diluted 300-fold into 150 microliter of RM containing 0.2% glycerol and ampicillin (100 μg/ml) and different concentrations of arabinose (0, 0.01% or 0.1%) in a microtiter plate and incubated at 37 degrees Celsius with vigorous shaking. The growth curve was monitored by measuring OD450 using a Bioscreen C Microbiology reader (Thermo Electron Corporation) at intervals of 30 minutes for 14 hours (see Invitrogen protocol of the pBAD/gill A, B and C vectors catalogue nos. V450-01 for buffer and media composition). The percentage of growth inhibition was calculated as the end point OD measurement of each sample divided by the end point OD measurement obtained from cells containing the control vector and multiplied by 100. The formula is the following: [formula] where “blank OD” corresponds to the OD of an empty well.

[1] = test system: Micrococcus luteus (ATCC9341); assay type: cell-based; settings: ATCC9341
Description: (§3) According to the NCCLS guidelines for susceptibility test of novel antimicrobial compounds, we found a broad spectrum of activity of Cat1 (Methods for Dilution Antimicrobial Susceptibility Tests for Bacteria That Grow Aerobically; Approved Standard-Fifth Edition. NCCLS document M7-A5 (ISBN1-56238-394-9)).
(§4) In another campaign, the specific MICs of Cat1 were determined against a variety of microbial strains relevant for wound infections. As recommended in the above-mentioned NCCLS protocol, the strains were grown in cationic adjusted Muller-Hinton Broth. The highest concentration tested was 32 μg/ml.
(§5) The antimicrobial activity of the polypeptides of the invention was analyzed using the Microdilution Broth Assay (see Example 1) with Mueller Hinton Broth (MHB) media. Four different bacterial strains were tested in this setup; Micrococcus luteus (ATCC 9341), Pseudomonas aeruginosa (ATCC 27853), Escherichia coli (ATCC 10536) and Klebsiella pneumoniae (DSM681). The amino acid sequence of the polypeptides and the Minimal Inhibitory concentrations (MIC, microgram/ml) obtained is presented in Table 7 below.

[2] = test system: Pseudomonas aeroginosa (ATCC27853); assay type: cell-based, Pseudomonas aeruginosa; settings: ATCC27853
Description: as §3, §4
Minimal inhibitory concentrations of Cat1 were also determined using cation-adjusted Mueller hinton broth (MHB) in the microbroth dilution assay, wherein MHB was used with different modifications as depicted in Table 2 below. The selected test organism was Pseudomonas aeroginosa (ATCC 27853). […]

[3] = test system: Eschericia coil (ATCC10536); assay type: cell-based, Escherichia coli; settings: ATCC10536
Description: as §3, §5

[4] = test system: Klebsiella pneumoniae (DSM681); assay type: cell-based
Description: as §3, §5

[5] = Table 5, 0.1% arabinose, end point OD450, 14 hours
[6] = Table 4, 0.01% arabinose, end point OD450, 14 hours
[7] = Table 4, 0.1% arabinose, end point OD450, 14 hours
[8] = Table 6, 0.01% arabinose, end point OD450, 14 hours
[9] = Table 6, 0.1% arabinose, end point OD450, 14 hours

“GRIKRVGEKIGKKLKKIGQVIKHLRILVP (Synthetic antimicrobial peptide) [SEQ ID NO: 38]” was tested, and the MEC (Escherichia coli Top10) was 8.5 µg/mL, the MEC (Staphylococcus camosus) was 8 µg/mL and the “Growth inhibition using 0.1% arabinose (%)” value (E. coli TOP10; [5]) was 96%.

“GLLRRLWRKIGRKLKKYGQKIKALRKLVP [SEQ ID NO: 13]” was tested, and the MIC [1] was 32 µg/mL, the MIC [2] was 32 µg/mL and the MIC [3] was 64 µg/mL. It also gave an MIC [4] of 32 µg/mL, an MEC (Escherichia coli Top10) of 27.0 µg/mL and an MEC (Staphylococcus camosus) of 4.4 µg/mL. The “Growth inhibition using 0.01% arabinose (%)” value (E. coli TOP10; TOP10, 14 h) was 96% and the “Growth inhibition using 0.1% arabinose (%)” value (E. coli TOP10; TOP10, 14 h) was 100%.

Work on “GLLRRLRKKIGKKLKKIAR [SEQ ID NO: 59, GLLRRLRKKIGKKLKKIAR]” yielded an MIC [1] of 32 µg/mL, an MIC [2] of 8 µg/mL and an MIC [3] of 16 µg/mL. It also gave an MIC [4] of 32 µg/mL, an MEC (Escherichia coli Top10) of 18.3 µg/mL and an MEC (Staphylococcus camosus) of 1.8 µg/mL. For the same sequence, the “Growth inhibition using 0.01% arabinose (%)” value (E. coli TOP10; TOP10, 14 h) was 93% and the “Growth inhibition using 0.1% arabinose (%)” value (E. coli TOP10; TOP10, 14 h) was 100%.

For “GLLRRFWMKIGGKLKKFGQMIKHLRKLVP (Synthetic antimicrobial peptide) [SEQ ID NO: 11]”, the “Growth inhibition using 0.01% arabinose (%)” value (E. coli TOP10; [6]) was 92% and the “Growth inhibition using 0.1% arabinose (%)” value (E. coli TOP10; [7]) was 99%.

In the case of “GLLRRLWKKIGRKFKKYGQVIKHIRKLVP (Synthetic antimicrobial peptide) [SEQ ID NO: 48]”, the “Growth inhibition using 0.1% arabinose (%)” value (E. coli TOP10; [5]) is reported as 97%.

For “GLLRRFRKKIGKKLKKIAR [SEQ ID NO: 62, GLLRRFRKKIGKKLKKIAR]”, the MIC [1] was 64 µg/mL, the MIC [2] was 64 µg/mL and the MIC [3] was 16 µg/mL. It also gave an MIC [4] of 32 to 64 µg/mL, an MEC (Escherichia coli Top10) of 28.0 µg/mL and an MEC (Staphylococcus camosus) of 1.1 µg/mL. The “Growth inhibition using 0.01% arabinose (%)” value (E. coli TOP10; TOP10, 14 h) was 94% and the “Growth inhibition using 0.1% arabinose (%)” value (E. coli TOP10; TOP10, 14 h) was 98%.

In the case of “GLFRRLKRKIGRKFKKIAR (Synthetic antimicrobial peptide) [SEQ ID NO: 60]”, the “Growth inhibition using 0.01% arabinose (%)” value (E. coli TOP10; [8]) is reported as 85% and the “Growth inhibition using 0.1% arabinose (%)” value (E. coli TOP10; [9]) is reported as 99%.

With “GLLRRLRKKIGKKLKKITR (Synthetic antimicrobial peptide) [SEQ ID NO: 63]” the “Growth inhibition using 0.01% arabinose (%)” value (E. coli TOP10; [8]) was 95% and the “Growth inhibition using 0.1% arabinose (%)” value (E. coli TOP10; [9]) was 99%.

In the case of “GLLKRLGRKIGKKLKKIAR [SEQ ID NO: 66, GLLKRLGRKIGKKLKKIAR]”, the MIC [1] is reported as 64 µg/mL, the MIC [2] is reported as 64 µg/mL and the MIC [3] is reported as 8 µg/mL. The MEC (Escherichia coli Top10) was 13.5 µg/mL, the MEC (Staphylococcus camosus) was 2 µg/mL and the “Growth inhibition using 0.01% arabinose (%)” value (E. coli TOP10; TOP10, 14 h) was 92%. The “Growth inhibition using 0.1% arabinose (%)” value (E. coli TOP10; TOP10, 14 h) was 100%.

In the case of “GLLRRFRKKIGEKFKKFGQKIKNIRILVP (Synthetic antimicrobial peptide) [SEQ ID NO: 55]”, the “Growth inhibition using 0.1% arabinose (%)” value (E. coli TOP10; [5]) is reported as 79%.

For “GRFKRLRKKIGKKFKKIGQKIKDIRKLIVP (GRFKRLRKKIGKKFKKIGQKIKDIRKLVP; Synthetic antimicrobial peptide) [SEQ ID NO: 51]”, the “Growth inhibition using 0.1% arabinose (%)” value (E. coli TOP10; [5]) was 97%.

For “GLLRRFWKKIGKKLKKFGQKIKPLPKLVP [SEQ ID NO: 41]”, the MIC [1] was 32 µg/mL, the MIC [2] was 16 µg/mL and the MIC [3] was 32 µg/mL. For the same sequence, the MIC [4] was 32 µg/mL, the MEC (Escherichia coli Top10) was 16.6 µg/mL and the MEC (Staphylococcus camosus) was 3.8 µg/mL. The “Growth inhibition using 0.1% arabinose (%)” value (E. coli TOP10; TOP10, 14 h) was 96%.

For “GLLRRLRKKIEKKLKKYGPKIKALRKLVP (Synthetic antimicrobial peptide) [SEQ ID NO: 37]”, the “Growth inhibition using 0.1% arabinose (%)” value (E. coli TOP10; [5]) was 94%.

With “GLLRRLRNKIRKKLKKFGQKIKAIRILVP (Synthetic antimicrobial peptide) [SEQ ID NO: 16]” the “Growth inhibition using 0.01% arabinose (%)” value (E. coli TOP10; [6]) was 96% and the “Growth inhibition using 0.1% arabinose (%)” value (E. coli TOP10; [7]) was 100%.
